Measurements taken from patent US6589747B2, “Method for identifying compounds that modulate the interaction of amyloid beta or its aggregates with a voltage gated sodium channel” (priority 1999, dated 2003).

Experiments:
[1] = system: fast inward sodium channel (TTX-sensitive) of isolated rat hippocampal neurons; experiment: Voltage-clamp recording of fast inward sodium current (INa); type: cell-based
[2] = system: fast inward sodium channels (TTX-sensitive) of rat hippocampal neurons; experiment: Aggregation time course versus impact on inward sodium current and other neuronal parameters; type: cell-based
[3] = system: potassium ion channel of isolated neurons; experiment: Voltage-clamp recording of potassium currents; type: cell-based, rat
Description: (§1) For all studies as described herein, single neurons freshly dissociated from adult rats (Chad et al, In, Cellular Neurobiology, Ed. J. Chad and H. Wheal, Oxford University Press (1991)) were examined using the suction pipette method (Lee et al., J. Neurosc. Methods, 2; 51-78 (1980)) under current- or voltage-clamp, with use of an Axopatch 200 Amplifier (Axon Instruments, Foster City, Calif.). Amyloid β1-40 was obtained from Polypeptide Laboratories, Torrance, Calif., or from Bachem Biochemica, Heidelberg, Germany.
In this experiment, the effect of amyloid β 1-40 on the potassium ion channel was studied using the methods described in Experiment 2 for the sodium channel.
In voltage-clamp, within the first 2-5 minutes, in some cells the peptide induced an outward holding current measuring about 10-50 pA, but this small current was enough to hyperpolarize the resting membrane potential from −50 mV to −90 mV. In other cells, the peptide instead caused a gradual depolarization to about −40 mV due to a slight inhibition of the outward holding current. In all cells, amyloid β 1-40 blocked the delayed outward potassium current by about 30-40% at all step potentials.

[4] = system: isolated adult rat cortical and hippocampal neurons; experiment: Current-clamp recording of resting membrane potential and action potentials of single neurons (suction pipette); type: cell-based
Description: as §1
Shaken aggregation assays (i.e., as in Examples 1-4) were performed as described previously (e.g., Findeis et al., Biochemistry, 38, 6791-6800 (1999)). This aggregation performed prior to use of the aggregated amyloid for contacting cells was done in the same media as the cells were contained, i.e., Hank's Balanced Salt Solution. Aggregation of amyloid for kinetic studies (i.e., as in Example 5), was done in a buffer composed of 10 mM phosphate, 100 mM NaCl, pH 7.4. […] At given times, the turbidities of the reaction mixture were read by measuring light scattering at 405 nm in a Molecular Devices (Menlo Park, Calif.) Vmax Microplate Reader. […]
In current-clamp, the resting membrane potential and action potentials of single neurons were continuously monitored for at least 10-20 minutes until the neuronal activity became stable. […]

[5] = system: calcium ion channel of isolated hippocampal neurons; experiment: Voltage-clamp recording of neuronal inward calcium current; type: cell-based, rat; conditions: 50 μM amyloid β 1-40, about 70 minutes shake-induced aggregation
Description: as §1
In this experiment, the effect of amyloid β 1-40 on the calcium ion channel was studied using the methods described in Experiment 2 for the sodium channel.

NC1=N[C@H](O)[C@H]2[C@H]3O[C@]4(O)O[C@@H]([C@@H](O)[C@@]2(N1)[C@@H]4O)[C@]3(O)CO [tetrodotoxin (TTX), tetrodotoxin]
sensitivity of fast inward sodium current to blocker [1]: sensitive

low molecular weight peptide aggregates of amyloid β 1-40 monomer: Low molecular weight aggregates (e.g. tetramer) of amyloid β 1-40
relative potency for inhibiting the fast inward sodium channels ([2]; compared with monomers or polymers): higher potency

Monomers of amyloid β 1-40: Non-aggregated monomeric form of amyloid β 1-40
impact on the parameters assessed (resting potential, action potential, sodium, calcium, potassium channels) ([2]; monomeric form, before aggregation): did not show significant impact

amyloid β 1-40
time of shake-induced aggregation giving peak impact on sodium channel activity (% decrease in INa) ([2]; 50 μM amyloid β 1-40): 60 to 80 min | inhibition level of the fast inward sodium channels after saturation of peptide aggregation ([2]; after reaching saturation of aggregation, mean values of four experiments): > 50% | block of delayed outward potassium current ([3]; all cells, at all step potentials): 30-40% | resting membrane potential after hyperpolarization (from −50 mV) ([3]; cells in which an outward holding current was induced): −90 mV | membrane potential after gradual depolarization ([3]; other cells, slight inhibition of the outward holding current): about −40 mV | induced outward holding current ([3]; voltage-clamp, within the first 2-5 minutes, in some cells): 10-50 pA | effect on action potentials ([4]; 11.5 μM amyloid β 1-40 added to cortical and hippocampal neurons): abrogation of action potentials | time of peptide exposure until action potentials disappeared altogether in most neurons ([4]; 10-50 μM amyloid β 1-40 preaggregated for different times): 20 to 30 min | reversibility of effect on fast inward sodium current on wash out ([1]; 50 μM amyloid β 1-40, about 90 and 120 minutes shake-induced aggregation, hippocampal neuron): cannot wash out | block of fast inward sodium current ([1]; 10-50 μM amyloid β 1-40 aggregated for various times, in about 5-30 minutes, holding potential −50 to −80 mV): ≤ 90% | effect on neuronal inward calcium currents [5]: depress neuronal inward calcium currents
